Positions of bridges follow the written chain, without caps; N, C: chain ends. Residues, ends and D or L forms follow the SMILES beside them.
Columns and labels:
[1] = tested on: E. coli O157:H7; assay: Live/Dead BacLight viability assay; format: cell-based, Escherichia coli; details: at the MIC level, 2 h at 37°C, 5 × 10^4 CFU/mL in LB; fluorescence microscopy
Experimental: A Live/Dead BacLight Bacterial Viability Kit 7 (Molecular Probes, Inc., Eugene) was used to test bacterial viability. Briefly, 5 × 10^4 CFU/mL S. Pullorum, S. Typhimurium, and E. coli O157:H7 were inoculated into 1 mL of LB containing recombinant MccJ25 at the MIC level specific for each pathogen. Bacterial cultures were incubated at 37°C for 2 h and then incubated in the dark at ambient temperature with SYTO 9 and propidium iodide for 15 min. Bacteria were observed using a fluorescence microscope (EVOS XL Cell Imaging System).

[2] = tested on: S. Typhimurium; assay: Antimicrobial activity in different growth phases, viable plate counting; format: cell-based, Salmonella Typhimurium; details: LB, plate counts, n = 6; for time within which bacteria were killed: early and late-log phase cells
Experimental: (§1) The effect of growth phase on the anti-Salmonella and -E. coli O157:H7 activity of recombinant MccJ25 was determined by the viable plate counting method, as described previously ([Ma et al., 2016]; [Fan et al., 2017]), with minor modifications. Cultures of the strains in the early-log phase, late-log phase and stationary phase were washed, concentrated and diluted with sterilized phosphate-buffered saline (PBS) to approximately 10^7 CFU/mL. Then, 1 mL was incubated individually in 9 mL of PBS to reach an approximate 10^6 CFU/mL final concentration. The bacterial cells were then inoculated into 5 mL of LB containing different concentrations of MccJ25 (0, 1 × MIC, 2 × MIC, and 4 × MIC). At 0, 12, 24, and 48 h post incubation, the cultures (0.1 mL) were serially diluted with PBS and plated on LB and TSA agar. The plates were incubated at 37°C overnight to count colony. Colonies were counted to determine CFU/mL. The experiment was conducted with two replicates in three independent trials.

[3] = tested on: E. coli O157:H7; assay: as above; format: cell-based, Escherichia coli; details: 4 × MIC, LB, plate counts, n = 6
Experimental: as §1

[4] = tested on: S. Pullorum; assay: Antimicrobial activity in biological food products (skim milk, egg yolk, mincemeat extract); format: cell-based, Salmonella Pullorum; details: 4 × MIC, 37°C; for viable bacteria after 24 h in the three food products: SKM, SEY, SMS, data not shown; for CFU reduction after 24 h: inoculum 10^6 CFU/mL, 250 rpm, plate counts, n = 6
Experimental: To further investigate the effects of recombinant MccJ25 on Salmonella and E. coli O157:H7 in different biological food products, sterile skim milk, egg yolk and mincemeat (pork) extract were collected and used as described previously with minor modifications ([Sable et al., 2000]). The skim milk, egg and mincemeat samples were purchased from a Carrefour store in Beijing. Specimens were kept on ice packs in coolers until they reached the laboratory, where they were stored at 4°C. The skim milk (SKM) and mincemeat supernatant (SMS) were autoclave sterilized at 121°C for 20 min. After autoclaving, the SKM and SMS samples were stored at 4°C for further use. The eggs were sterilized with 75% ethanol and transferred into an exceptionally clean bench to collect the egg yolk (SEY). The SEY was diluted 1:1 with sterile distilled water. Biological product samples were mixed with a final concentration of 4 × MIC of recombinant MccJ25 solution in sterile saline water (0.85%). They were then inoculated with S. Pullorum, S. […] Sterilized saline water (SSW) with the recombinant MccJ25 was utilized for comparison. This assay was performed to obtain the desired quantity of cells. The mixtures were tested after 24 h of incubation at 37°C with shaking (250 rpm). After incubation, Salmonella species and E. coli O157:H7 were serially diluted with PBS and plated on LB and TSA agar. The plates were incubated at 37°C overnight to count colony. Colonies were counted to determine CFU/mL. The experiment was conducted with two replicates in three independent trials.

[5] = tested on: E. coli O157:H7; assay: as above; format: cell-based, Escherichia coli; details: 4 × MIC, SKM, 37°C; for viable bacteria after 24 h in the three food products: SEY, SMS, data not shown
[6] = tested on: S. Pullorum; assay: Thermal stability, inhibition zone read-out; format: physicochemical, Salmonella Pullorum; details: temperatures as high as 121°C for 20 min; 150 μL of 1 × MIC; Oxford cup inhibition zone on LB agar, overnight 37°C; three replicate experiments
Experimental: […] The assays were conducted as described previously ([Chen et al., 2009]; [Meng et al., 2019]), with slight modifications. LB agar inoculated with the indicator bacteria S. Pullorum (approximately 10^5 viable cells per mL) was poured over plates fitted with Oxford cups to make wells. 150 μL of 1 × MIC final concentration of recombinant MccJ25 samples previously treated under various conditions were added to the wells. The agar overlays were incubated overnight at 37°C, and the inhibition zones were recorded.

[7] = tested on: S. Pullorum; assay: pH stability, inhibition zone read-out; format: physicochemical, Salmonella Pullorum; details: pH 2.0 to 9.0 for 2 h; 150 μL of 1 × MIC; Oxford cup inhibition zone on LB agar, overnight 37°C; three replicate experiments
Experimental: Assays of the antibacterial activity of recombinant MccJ25 at different temperatures (25, 37, 45, 55, 65, 75, 85, and 95°C for 20 min) and different pH values (pH 2.0, 3.0, 4.0, 5.0, 6.0, 7.0, 8.0, and 9.0 for 2 h) were performed. The assays were conducted as described previously ([Chen et al., 2009]; [Meng et al., 2019]), with slight modifications. LB agar inoculated with the indicator bacteria S. Pullorum (approximately 10^5 viable cells per mL) was poured over plates fitted with Oxford cups to make wells. 150 μL of 1 × MIC final concentration of recombinant MccJ25 samples previously treated under various conditions were added to the wells. The agar overlays were incubated overnight at 37°C, and the inhibition zones were recorded.

CC[C@H](C)[C@H](NC(=O)CNC(=O)[C@@H](NC(=O)[C@H](Cc1ccccc1)NC(=O)[C@H](Cc1ccc(O)cc1)NC(=O)[C@@H]1CCC(=O)NCC(=O)NCC(=O)N[C@@H](C)C(=O)NCC(=O)N[C@@H](Cc2c[nH]cn2)C(=O)N[C@@H](C(C)C)C(=O)N2CCC[C@H]2C(=O)N1)C(C)C)C(=O)NCC(=O)N[C@H](C(=O)N1CCC[C@H]1C(=O)N[C@H](C(=O)N[C@@H](CO)C(=O)N[C@@H](Cc1ccccc1)C(=O)N[C@@H](Cc1ccc(O)cc1)C(=O)NCC(=O)O)[C@@H](C)CC)[C@@H](C)O [recombinant MccJ25, microcin J25] (GGAGHVPEYFVGIGTPISFYG-OH; lactam N-8 (inferred); C-terminus assumed)
bactericidal activity, Live/Dead staining (SYTO 9 / propidium iodide) [1]: excellent bactericidal activity
time within which bacteria were killed ([2]; 2 × MIC): ≤ 48 h
time within which bacteria were killed ([2]; 4 × MIC): ≤ 24 h
time to reduction to non-detectable levels ([2]; stationary phase cells, 4 × MIC): 48 h
time to reduction to non-detectable levels ([3]; early-log phase cells): ≤ 12 h
time to reduction to non-detectable levels ([3]; late-log phase cells): ≤ 24 h
time to reduction to non-detectable levels ([3]; stationary phase cells): 48 h
viable bacteria after 24 h in the three food products ([4]; inoculum 10^3 CFU/mL): no viable bacteria were detected
viable bacteria after 24 h in the three food products ([4]; inoculum 10^4 CFU/mL): no bacteria were detected
CFU reduction after 24 h ([4]; sterilized egg yolk (SEY), diluted 1:1): ~8 × 10^3 CFU/mL
CFU reduction after 24 h ([4]; sterilized mincemeat supernatant (SMS)): ~7 × 10^3 CFU/mL
CFU reduction after 24 h ([4]; sterilized skim milk (SKM)): approximately 10^4 CFU/mL
viable bacteria after 24 h in the three food products ([5]; inoculum 10^3 CFU/mL): no viable bacteria were detected
viable bacteria after 24 h in the three food products ([5]; inoculum 10^4 CFU/mL): no bacteria were detected
CFU reduction after 24 h ([5]; SEY, and SMS, inoculum 10^6 CFU/mL, plate counts, n = 6): approximately 10^3 CFU/mL
influence of temperature on activity against S. Pullorum (thermal stability) [6]: no influence
effect of pH on activity against S. Pullorum (pH stability) [7]: no effect

From PMC6718478, “A Comprehensive Antimicrobial Activity Evaluation of the Recombinant Microcin J25 Against the Foodborne Pathogens Salmonella and E. coli O157:H7 by Using a Matrix of Conditions” (Frontiers in Microbiology, 2019)
